Ends that are not written are not given here.

One assay has as its target HLA-A*02:01 (Homo sapiens, UniProt P04439, D140Y/D185E/D98H/E176V/E277Q/G131W/G231S/I119V/I121R/I166T/I218V/L300P/L318F/N151K/N90K/P208A/P217A/Q86G/Q94H/R138H/R169H/T345S). The format is binding. Particulars: for Average %: average of Exch I and Exch II, relative to exchange control peptide Pos (100%); for Exch I (%): first UV-induced peptide exchange; for Exch I (%) / Exch II (%): absorbance relative to exchange control peptide Pos (100%); for Exch II (%): second UV-induced peptide exchange.

The subject of assay [1] is CD8+ T cells from HLA-02:01+ PBMCs. The assay is described as follows: Frequency of double positive T cells for mimic and mutant tetramers (flow cytometry). Type of assay: cell-based, human. On the procedure: Preparation of PBMCs: Vials of HLA-02:01^+ PBMCs frozen from donors (Hemacare) were removed from LN2 storage and rapidly thawed in a 37° C. water bath. The cells were transferred to a 50 mL conical tube containing 40 mL warm media (RPMI 1640 medium+10% fetal bovine serum (FBS)+1% Penicillin streptomycin solution), spun at 1300 rpm for 5 minutes at room temperature. The cell pellet was resuspended in 2 mL EASYSEP™ buffer and cells were counted using trypan blue live dead marker using a haemocytometer.
Enrichment of CD8+ T cells: To enrich the CD8+ T cells from the PBMCs, EASYSEP™ Human CD8+ T Cell Isolation Kit was used as per the manufacturer's instructions. Post enrichment, the cell pellet was resuspended in Dulbecco's phosphate-buffered saline (DPBS) and cells were counted as above. To determine the viability, LIVE/DEAD™ Fixable Violet Dead Cell Stain Kit was used at 0.5 μL/1×10^6/100 μL cell suspension and incubated at room temperature for 20 minutes. At the end of incubation period, FACS buffer (DPBS+2% FBS) was added and the cells were spun at 1300 rpm for 5 minutes at room temperature. The cell pellet was resuspended in FACS buffer, trypan blue was added, and the cell count was determined using a haemocytometer. The cell density was maintained at 1×10^6/50 μL FACS buffer. 3 μL Fc block was added per 1×10^6 cells and incubated for 10 minutes at room temperature in the dark. At the end of the incubation, mimic tetramer and the corresponding mutant tetramers were added at 3 μL tetramer/1×10^6 cells.
For frequency determination, 2×10^6 cells were used for test samples and 1×10^6 cells were used for control samples where negative tetramers were added in place of the mimic or mutant tetramers. A sample where no tetramers were added was kept as unstained control. The samples were incubated at room temperature for 30 minutes in dark. At the end of incubation period, CD8 antibody was added at 2 μL/1×10^6 cells and the samples were incubated for another 30 minutes at room temperature in dark. At the end of incubation, FACS buffer was added to the samples and the samples were spun at 1300 rpm for 5 minutes. The pellet was resuspended in 5 mL FACS buffer and the cells were spun at 1300 rpm for 5 minutes. The pellet was resuspended in 200 μL FACS buffer and events were acquired using the Novocyte flow cytometer.
The cells were acquired on the Novocyte flow cytometer and gated on forward scatter height (FSC-H) versus side scatter height (SSC-H). The cells high on FSC-H versus SSC-H were gated as lymphocytes. From the lymphocytes, live cells were gated by selecting the pacific blue negative cells on an FSC-H versus Pacific Blue-H plot. From the live cells, single cells were gated on FSC-H versus forward scatter area (FSC-A). CD8+ T cells were gated from the singlets as Alexa Fluor 700 positive cells. For gating phycoerythrin (PE) conjugated tetramer positive cells, the CD8^+ cells were gated on Alexa Fluor 700-H versus PE-H and the double positive cells were considered as CD8+ tetramer+. For gating allophycocyanin (APC) conjugated tetramer positive cells, the CD8^+ cells were gated on Alexa Fluor 700-H versus APC-H and the double positive cells were considered as CD8+tetramer+. All gates were set using the negative tetramers to eliminate non-specific binding. The dual positive cells that were mimic and mutant tetramer positive cells were gated by plotting PE-H versus APC-H within the CD8^+ cells.
(In general: Flow cytometry measures light scatter and fluorescence of single cells or particles in a stream.)

Setting [2] is: donor 17042765, frequency of double positive T cells at least 2-fold higher than the background (negative tetramers).
[3] abbreviates: donor 19054445, frequency of double positive T cells at least 2-fold higher than the background (negative tetramers).

For 6 (LVVVGACGV) [compound 6], in the assay with HLA-A*02:01, the Average % is listed as 7.0%, the “Exch I (%)” value is recorded as 6.5% and the “Exch II (%)” value was 7.5%.
For 7 (LVVVGAVGV) [compound 7] the same measures were 4.5%, 4.3% and 4.6%.
With 99 (NLVPMVATL) [compound 99], in the assay with HLA-A*02:01, the Average % is listed as 23.6%, the “Exch I (%)” value worked out at 26.8% and the “Exch II (%)” value worked out at 20.4%.
As for “Mutant (SEQ ID NO: 2) Mimic (SEQ ID NO: 29): pair of tetramers loaded with mutant YLDCGIHSG (APC) and mimic YLDCGIHSV (PE) (not fully specified; cysteine pairing not given here)”, the “Frequency (%) of double positive T cells within CD8+ compartment of donors” value (from here on “Frequency (%)”) amounted to 0.075% in assay [1] (Donor ID 20001476); 0.000% in assay [1] (Donor ID 20001487); 0.095% in assay [1] (Donor ID 20061357); 0.000% in assay [1] (Donor ID 20061599); 0.000% in assay [1] (Donor ID 20061661); 0.000% in assay [1] (Donor ID 20062224). In addition, the “Frequency (%)” value in assay [1] (Donor ID 20062384) is 0.000%.
On to “Mutant (SEQ ID NO: 3) Mimic (SEQ ID NO: 32): pair of tetramers loaded with mutant YLDSGIHFG (APC) and mimic YLDSGIHFV (PE) (not fully specified)”, for which the “Frequency (%)” value in assay [1] (Donor ID 20001476) was determined as 0.051%; in assay [1] (Donor ID 20001487), 0.000%; in assay [1] (Donor ID 20061357) it was 0.007%; in assay [1] (Donor ID 20061599) it was 0.000%; in assay [1] (Donor ID 20061661) it was 0.000%; in assay [1] (Donor ID 20062224) it was 0.000%. Moreover, in assay [1] (Donor ID 20062384), the “Frequency (%)” value is 0.023%.
Consider “Mutant (SEQ ID NO: 9) Mimic (SEQ ID NO: 45): pair of tetramers loaded with mutant ILNREIDFA (PE) and mimic ILNREIDFV (APC) (not fully specified)”, for which the “Frequency (%)” value in assay [1] (Donor ID 17042380) was 0.05%; in assay [1] (Donor ID 17042765) it was 0.14%; in assay [1] (Donor ID 18047563), 0.01%; in assay [1] (Donor ID 19053796) it was 0.1%; in assay [1] (Donor ID 19054141) it was 0.03%; in assay [1] (Donor ID 19054183), 0.01%. For the same substance, the figures for the “Frequency (%)” value in assay [1] (Donor ID 19054445) and in assay [1] (Donor ID 19054456) were 0.24% and 0.01%, respectively. In addition, the “T-cells positive for mutant-mimic pair” value in assay [1] (setting [2]), in assay [1] (donor 19053796) and in assay [1] (setting [3]) was “positive” in each case.
Regarding “Mutant (SEQ ID NO: 13) Mimic (SEQ ID NO: 59): pair of tetramers loaded with mutant KTYPVQLWV (APC) and mimic KMYPVQLWL (PE) (not fully specified)”, the “Frequency (%)” value in assay [1] (Donor ID 17042380) worked out at 0.04%; in assay [1] (Donor ID 17042765) it was 0.13%; in assay [1] (Donor ID 18047563) it was 0.01%; in assay [1] (Donor ID 19053796), 0.06%; in assay [1] (Donor ID 19054141), 0.02%; in assay [1] (Donor ID 19054183), 0.01%. In addition, the “Frequency (%)” value in assay [1] (Donor ID 19054445) is on record as 0.38%; in assay [1] (Donor ID 19054456), 0%. For the same substance, the “T-cells positive for mutant-mimic pair” value in assay [1] (setting [2]), in assay [1] (donor 19053796) and in assay [1] (setting [3]) was “positive” in each case.
Take “Mutant (SEQ ID NO: 16) Mimic (SEQ ID NO: 64): pair of tetramers loaded with mutant ALNNMFCQL (PE) and mimic ALNNMFCQV (APC) (not fully specified; cysteine pairing not given here)”: the “Frequency (%)” value is 0.021% in assay [1] (Donor ID 20001476); 0.000% in assay [1] (Donor ID 20001487); 0.002% in assay [1] (Donor ID 20061357); 0.000% in assay [1] (Donor ID 20061599); 0.000% in assay [1] (Donor ID 20061661); 0.016% in assay [1] (Donor ID 20062224). In addition, in assay [1] (Donor ID 20062384), the “Frequency (%)” value was 0.000%.
With “Mutant (SEQ ID NO: 18) Mimic (SEQ ID NO 68): pair of tetramers loaded with mutant QLWVDSTPL (APC) and mimic QLWVDSTPV (PE) (not fully specified)”, the “Frequency (%)” value in assay [1] (Donor ID 17042380) stood at 0.01%; in assay [1] (Donor ID 17042765) it was 0%; in assay [1] (Donor ID 18047563), 0%; in assay [1] (Donor ID 19053796), 0%; in assay [1] (Donor ID 19054141), 0%; in assay [1] (Donor ID 19054183), 0%. Moreover, the “Frequency (%)” value in assay [1] (Donor ID 19054445) is reported as 0.01%; in assay [1] (Donor ID 19054456), 0%. Also, the “T-cells positive for mutant-mimic pair” value in assay [1] (donor 19053796) is “positive”.
For the substance “Mutant (SEQ ID NO: 22) Mimic (SEQ ID NO: 75): pair of tetramers loaded with mutant LLGRNSFEM (PE) and mimic LLGRNSFEL (APC) (not fully specified)”, the “Frequency (%)” value in assay [1] (Donor ID 20001476) came out at 0.000%; in assay [1] (Donor ID 20001487), 0.000%; in assay [1] (Donor ID 20061357), 0.004%; in assay [1] (Donor ID 20061599), 0.000%; in assay [1] (Donor ID 20061661) it was 0.000%; in assay [1] (Donor ID 20062224), 0.015%. In addition, in assay [1] (Donor ID 20062384), the “Frequency (%)” value stood at 0.000%.
Consider “Mutant (SEQ ID NO: 23) Mimic (SEQ ID NO: 78): pair of tetramers loaded with mutant VVPCEPPEV (PE) and mimic VLPCEPPEV (APC) (not fully specified; cysteine pairing not given here)”, for which the “Frequency (%)” value in assay [1] (Donor ID 20001476) is on record as 0.153%; in assay [1] (Donor ID 20001487) it was 0.000%; in assay [1] (Donor ID 20061357) it was 0.006%; in assay [1] (Donor ID 20061599), 0.000%; in assay [1] (Donor ID 20061661) it was 0.000%; in assay [1] (Donor ID 20062224), 0.000%. Further, the “Frequency (%)” value in assay [1] (Donor ID 20062384) amounted to 0.023%.

Source of the values: patent US12275766B2, “Neoantigen peptide mimics” (Janssen Biotech, Inc., priority 2020, dated 2025).
